Results: patent US6627664B2, “Perylenequinones for use as sonosensitizers” (Altachem Pharma Ltd., priority 2001, dated 2003)
Like-named read-outs stand apart in the source and are kept apart here.

How the values were obtained:
cells = conditions: for Photopotentiation Factor: LD50 dark divided by LD50 light; for LD50 Light: light dose not fixed, 0.75-1.0 J/cm2 of 630 nm light
Source text: As used herein, “photopotentiation factor” refers to the property of the compound(s) to exert light- or sound-mediated toxicity in excess of its (their) inherent unactivated toxicity. […] Where the term “LD50” has been used above, the term “IC50” may be substituted, to address the bioassays that concern metabolic activity rather than the endpoint of lethality, loss of reproductive capability, or clonogenic death. The relative photoactivation efficiency of a compound may also be determined using a clonogenic assay, an assay that is well known to those skilled in the art.
In accordance with the present invention, a desirable PQP derivative is one that is non-toxic (or of low toxicity) at high drug concentrations without activation, i.e., without light (also referred to as “dark”), and/or without sound, and is toxic at low concentrations when light of the appropriate wavelength, or sound of the appropriate frequency, is applied. As is recognized by those skilled in the art, the most desirable compounds are those that provide a wide range of non-toxic doses in an unactivated state, as this characteristic provides an increased safety factor for the patient.

[1] = Singlet oxygen (1O2) yield; type: physicochemical
[2] = Light absorption properties (red spectral region, 630 nm); type: physicochemical; conditions: for A630: absorbance at 630 nm
HL-60 cells = experiment: Sonodynamic toxicity (insonation, surviving fraction); type: cell-based, human
Method: Sonodynamic toxicity of two perylenequinone derivatives in human promyelocytic leukemia cells in vitro, with respect to a positive control, hematoporphyrin at 1 mM.
HL-60 cells were treated with perylenequinone sensitizers and insonated as described above. The surviving fractions were plotted against sensitizer concentration. […] Cell survival decreased steeply over the next two decades of sensitizer concentration.

sarcoma 180 cells = conditions: cited from earlier work

| Compound | Photopotentiation Factor (cells) | LD50 Light (cells) [µM] | ^1O2 Yield [1] | toxicity (in words) (cells) | LD50 Dark (cells; without light) [µM] | LD50 Dark (cells) [µM] | Abs. Peak in red Spectral region [2] [nm] | maximum sonotoxic effect (HL-60 cells; 100 μM to 1000 μM, versus 1000 μM Hp control) | sonotoxicity (HL-60 cells; up to 100 μM) | rate of ultrasound-induced cell damage (sarcoma 180 cells; 80 μM, insonated, versus ultrasound alone) | cell damage with compound alone (sarcoma 180 cells; no ultrasound) | Extinction Coefficient (× 10^−3) (630 nm) [2] | A630 [2] | Amax/solvent ([2]; solvent CHCl3) | Amax/solvent ([2]; solvent DMSO) |
| --- | --- | --- | --- | --- | --- | --- | --- | --- | --- | --- | --- | --- | --- | --- | --- |
| 2-(N,N-diethyl-amino) ethylamine-HB [HBDD-R2] | >3.3 | 7.5 | 0.36 |  |  |  |  |  |  |  |  |  |  |  |  |
| 2-(N,N-dimethyl-amino) propylamine-HB [HBDP-R1] | >16.6-50 | 0.5 to 1.5 | 0.42 | average or lower than average toxicity | >25 |  |  |  |  |  |  |  |  |  |  |
| 2-morpholino-ethyl-aminated-HB [HBAM-R1] | >6.25 | 4 | 0.70 |  |  | >25 | 658 |  |  |  |  |  |  |  |  |
| 5,8-dibromo-HB [DBHB] | 3.3 | 3 | 0.62 |  |  | 10 |  | comparable to that of the Hp control | negligible sonotoxicity |  |  |  |  |  |  |
| COc1cccc2c1C(=O)c1c(O)c3c(c(O)c1C2=O)CC(O)(C(=O)COC(=O)CCCCCC(=O)O)CC3OC1OC(C)C(O)C(O)C1F (stereo not shown) [FAD 104, 3′-deamino-2′-fluoro-3′-hydroxydoxorubicin-14-pimelate] |  |  |  |  |  |  |  |  |  | doubled | no cell damage |  |  |  |  |
| Cystamine-HB [HBAC-R1] | 12.5 | 1 | 0.40 |  | 12.5 |  | 646 |  |  |  |  | 3.88 × 10^−3 | 0.388 | 0.417/CHCl3 |  |
| Cystamine-HB [HBAC-R2] | 2.5 | 5 | 0.31 |  | 12.5 |  | 600 |  |  |  |  | 2.44 × 10^−3 | 0.244 |  | 0.337/DMSO |
| Deacetylated-HA [DAHA] |  | >5 | 0.51 |  |  | >25 | 622 |  |  |  |  | 5.70 × 10^−3 | 0.570 |  |  |
